Experimental findings from patent publication US10442804B2, “Compounds for the treatment of hepatitis B virus infection” (Gilead Sciences, Inc., priority 2017, dated 2019) are described below.

The structures appear in SMILES notation. Where two headings read alike, the source gives them in different places.

The subject of data set [1] is MT-4 cell line (HTLV-1 transformed, human T lymphoblastoid cells). Briefly: MT-4 cytotoxicity assay. In kind it is cell-based. The following applies: five days, Cell Titer Glo luminescence. Background: In ATP-based viability assays light output follows the ATP content of the culture.
Data set [2] relates to HBV-infected NTCP-HepG2 cells, secreted HBsAg. Briefly: microbe, parasite or virus in culture. The following applies: secreted HBsAg in supernatant after 5 days, geometric mean of minimum four determinations, read-out: NTCP HBsAg EC50. In kind it is cell-based, hepatitis B virus (genotype D, AD38-derived). Put shortly: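 NTCP-HepG2 cells were infected with genotype D HBV at 4000 genome equivalents/cell, then seeded 4 days post-infection with serially diluted compounds (1% DMSO) for 5 days. Supernatant HBsAg was measured by chemiluminescent MSD immunoassay. EC50 from four-parameter fit, geometric mean of ≥4 determinations.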

The nature of data set [3]: In vitro metabolic stability, hepatocyte stability (dog). Format: in vitro ADME. The following applies: Dog hepatocytes, read-out: hepatocyte stability T1/2 (converted). As for the experimental part: (§1) Biological Example 3: In Vitro Metabolic Stability
(§2) For hepatocyte stability incubations, cells were obtained from BioreclamationIVT (Baltimore, Md.), thawed according to the manufacturer's directions, and resuspended to a final concentration of 1×10^6 cells/mL in Krebs-Henseleit buffer prewarmed to 37° C. The total cell count and the proportion of viable cells were determined by Trypan Blue dye exclusion using a hemocytometer. The final concentration of test compounds and positive controls was 2 μM. Incubations were carried out in duplicate wells of a 24-well plate out with gentle shaking at 37° C. under a humid atmosphere of 95% air/5% CO2 (v/v). Aliquots (50 μL) were removed after 0, 1, 3, and 6 hours and added to 100 μL quenching solution. Samples were then processed and analyzed in a manner similar to the microsomal stability samples.
(§3) Quantification of test compounds and positive controls were performed using analyte/internal standard peak area ratios (PAR) measured on a Q-Exactive mass spectrometer (Thermo Scientific, San Jose, Calif.) coupled to an Aria Transcend LX-4 multiplex UHPLC system (Thermo Scientific, San Jose, Calif.). […] Half-lives of compounds in the incubations were calculated from extracted data using GMSU/QuickCalc (Gubbs, Inc.) and data are summarized in the following Table 2.

Data set [4] can be described thus: In vitro metabolic stability, hepatocyte stability (rat). The following applies: Rat hepatocytes, read-out: hepatocyte stability T1/2 (converted). In kind it is in vitro ADME. As for the experimental part: as §1, §2, §3
Another data set in a line: MT-4 cytotoxicity assay. Format: cell-based, human. The following applies: human, five days, Cell Titer Glo luminescence; read-out: MT-4 CC50.
The nature of data set [5]: In vitro metabolic stability, hepatocyte stability (human). Format: in vitro ADME. The following applies: Human hepatocytes, read-out: hepatocyte stability T1/2 (converted). As for the experimental part:
as §1, §2, §3

Data set [6] is described as follows: In vitro metabolic stability, hepatocyte stability (cynomolgus monkey). Format: in vitro ADME. The following applies: Cyno hepatocytes, read-out: hepatocyte stability T1/2 (converted). As for the experimental part:
as §1, §2, §3

Data set [7] concerns Human iPSC derived iCell GABAergic Neurons. The experiment in a line: Human iPSC neurite outgrowth assay. Format: cell-based. As for the experimental part: Biological Example 4: Toxicology Study
Human iPSC Neurite Outgrowth Assay
Human induced pluripotent stem cell (iPSC) derived iCell GABAergic Neurons (Cellular Dynamics Inc.) were seeded at a density of 67,500 cells per square centimeter into 384 well plates. The neurons were plated for 1 hour in attachment media before exchange for serum-free growth media (Cellular Dynamics Inc.). The serum-free growth media was exchanged for fresh media and the plated neurons were treated with test compounds and control compounds at 6 concentrations (1 nM-100 μM) at 4 and 24 hour timepoints in triplicate wells. Optimum neuron cell attachment to the plates was obtained at the 24 hour timepoint. Vincristine was utilized as the positive control for toxic inhibition of neurite outgrowth and 0.1% DMSO treatment was used for control treatment of neurons. Celltracker and DRAQ7 stains were applied prior to fixation of cells to assess nuclear and cell viability. Cells were then fixed for 20 minutes in 4% formaldehyde in PBS containing Hoechst dye and then fixative was replaced with PBS twice. High content imaging was performed with 9 fields of 20× magnification on a CX7 HCS system with an algorithm to enable quantification of neurite lengths and neurite branch points in all treatment groups. The results of the counts and measurements were then analyzed by the strictly standardized mean difference (SSMD) method of analysis to measure effect size for any decreases in mean neurite total length per cell (microns) or changes in mean branch point counts per cell (PhenoVista Biosciences, San Diego). FIG. 1 depicting plots of mean branch point counts per cell as a function of concentration for Vincristine, RG783/R07020322, and Compound 73 (free base, purified without addition of TFA). […]

For orientation: CC50 means the concentration at which the toxic effect on the cells reaches its halfway point. The term EC50 denotes the concentration that produces a half-maximal response. Regarding `COCCCOc1cc2c(cc1Cl)-c1cc(=O)c(C(=O)O)cn1[C@H]1[C@@H]2CCC1(C)C` (racemic) [Example 32, cis-10-chloro-11-(3-methoxypropoxy)-3,3-dimethyl-7-oxo-1,2,3,3a,7,12b-hexahydrocyclopenta[c]pyrido[2,1-a]isoquinoline-6-carboxylic acid], the midpoint of cytotoxicity in data set [1], the CC50, lay at 6000 nM. Moreover, the EC50 in data set [2] turned out to be 120 nM.
As for `COCCCOc1cc2c(cc1Cl)-c1cc(=O)c(C(=O)O)cn1[C@H]1[C@@H]2CCC1(C)C` (single isomer, unassigned) [Example 33], the half-life at 2 μM is 5.7 h in data set [3], 1.6 h in data set [4], 21.6 h in data set [5] and 5.6 h in data set [6]. The 50% cytotoxic concentration (CC50) at 5 days in “MT-4 cytotoxicity assay” is 7900 nM. The EC50 in data set [2] (Hepatitis B virus, 120 h) amounted to 1.8 nM.
As for `COCCCOc1cc2c(cc1COC)-c1cc(=O)c(C(=O)O)cn1N1[C@@H]2CCC1(C)C` [Example 73, (R)-11-(methoxymethyl)-12-(3-methoxypropoxy)-3,3-dimethyl-8-oxo-2,3,8,13b-tetrahydro-1H-pyrido[2,1-a]pyrrolo[1,2-c]phthalazine-7-carboxylic acid], in “MT-4 cytotoxicity assay”, the CC50 at 5 days was above 10000 nM. In addition, the “neurite total length and branch point counts” value in data set [7] was “No significant effects”. The EC50 in data set [2] (Hepatitis B virus, 120 h) came to 1.9 nM.
As for `CC[C@]1(O)C[C@H]2CN(CCc3c([nH]c4ccccc34)[C@@](C(=O)OC)(c3cc4c(cc3OC)N(C=O)[C@H]3[C@@](O)(C(=O)OC)[C@H](OC(C)=O)[C@]5(CC)C=CCN6CC[C@]43[C@@H]65)C2)C1` [Vincristine], the “neurite total length and branch point counts” value in data set [7] (4 and 24 hour treatments, vs 0.1% DMSO treated neurons, SSMD analysis) is listed as “significant decreases”. Further, the “Branch Point Count SSMD Values” in data set [7] (4 hr, 0.001 μM, vs 0.1% DMSO) is “NS (NS = no significant effect and >−3 SSMD Values.)”; in data set [7] (4 hr, 0.01 μM, vs 0.1% DMSO), “NS (NS = no significant effect and >−3 SSMD Values.)”; in data set [7] (4 hr, 0.1 μM, vs 0.1% DMSO), “NS (NS = no significant effect and >−3 SSMD Values.)”; in data set [7] (4 hr, 1 μM, vs 0.1% DMSO) it was “NS (NS = no significant effect and >−3 SSMD Values.)”; in data set [7] (4 hr, 10 μM, vs 0.1% DMSO), −3.0; in data set [7] (4 hr, 100 μM, vs 0.1% DMSO) it was −3.5. In addition, the “Branch Point Count SSMD Values” in data set [7] (24 hr, 0.001 μM, vs 0.1% DMSO) is “NS (NS = no significant effect and >−3 SSMD Values.)”; in data set [7] (24 hr, 0.01 μM, vs 0.1% DMSO), “NS (NS = no significant effect and >−3 SSMD Values.)”; in data set [7] (24 hr, 0.1 μM, vs 0.1% DMSO) it was “NS (NS = no significant effect and >−3 SSMD Values.)”; in data set [7] (24 hr, 1 μM, vs 0.1% DMSO) it was −3.1; in data set [7] (24 hr, 10 μM, vs 0.1% DMSO) it was −3.6; in data set [7] (24 hr, 100 μM, vs 0.1% DMSO), −6.0. Besides, the “Decreased Neurite Length SSMD Values” in data set [7] (4 hr, 0.001 μM, vs 0.1% DMSO) was “NS (NS = no significant effect and >−3 SSMD Value.)”; in data set [7] (4 hr, 0.01 μM, vs 0.1% DMSO), “NS (NS = no significant effect and >−3 SSMD Value.)”; in data set [7] (4 hr, 0.1 μM, vs 0.1% DMSO), “NS (NS = no significant effect and >−3 SSMD Value.)”; in data set [7] (4 hr, 1 μM, vs 0.1% DMSO), −7.3; in data set [7] (4 hr, 10 μM, vs 0.1% DMSO) it was −5.7; in data set [7] (4 hr, 100 μM, vs 0.1% DMSO) it was −10. Also, the “Decreased Neurite Length SSMD Values” is “NS (NS = no significant effect and >−3 SSMD Value.)” in data set [7] (24 hr, 0.001 μM, vs 0.1% DMSO); “NS (NS = no significant effect and >−3 SSMD Value.)” in data set [7] (24 hr, 0.01 μM, vs 0.1% DMSO); “NS (NS = no significant effect and >−3 SSMD Value.)” in data set [7] (24 hr, 0.1 μM, vs 0.1% DMSO); −4.9 in data set [7] (24 hr, 1 μM, vs 0.1% DMSO); −5.4 in data set [7] (24 hr, 10 μM, vs 0.1% DMSO); −6.6 in data set [7] (24 hr, 100 μM, vs 0.1% DMSO). Also, in data set [7] (any of the tested concentrations (1 nM-100 μM), vs 0.1% DMSO control, SSMD analysis), the “neuron counts or neuron viability” value is recorded as “No significant changes of effect”.
On to `COCCCOc1cc2c(cc1Cl)-c1cc(=O)c(C(=O)O)cn1N1[C@@H]2CCC1(C)C` (single isomer, unassigned) [Example 5], for which the half-life at 2 μM in data set [3] was above 39.5 h; in data set [4], above 39.5 h; in data set [5], above 39.5 h; in data set [6] it was 20.8 h. The cytotoxic concentration (CC50) at 5 days in the data set “MT-4 cytotoxicity assay” was above 10000 nM. Also, the concentration for a half-maximal effect (EC50) in data set [2] (Hepatitis B virus, 120 h) amounted to 1.7 nM.
Consider `COCCCOc1cc2c(cc1OC)-c1cc(=O)c(C(=O)O)cn1[C@H](C(C)C)C2` [RG7834/R07020322], for which the “neurite total length and branch point counts” value in data set [7] is reported as “significant decreases”. In addition, the “Decreased Neurite Length SSMD Values” in data set [7] (human, 4 h, 10 μM) is on record as −3.8; in data set [7] (human, 4 h, 100 μM) it was −4.0; in data set [7] (human, 24 h, 1 μM), −3.4; in data set [7] (human, 24 h, 10 μM) it was −5.9; in data set [7] (human, 24 h, 100 μM), −4.5. The “Branch Point Count SSMD Values” is recorded as −5.2 in data set [7] (human, 4 h, 100 μM); −3.3 in data set [7] (human, 24 h, 1 μM); −3.4 in data set [7] (human, 24 h, 10 μM); −5.0 in data set [7] (human, 24 h, 100 μM).
